Reference: patent EP4745137A1 (Gluetacs Therapeutics (Shanghai) Co., Ltd., priority 2023, dated 2025)

Key:
Assay type in all cases: cell-based
Conditions in all cases: 24 hours of compound treatment
CK1α = target: T1, CK1α (Homo sapiens, UniProt P48729+Q96SW2); experiment: Western-blot assay of substrate protein degradation in hPBMCs, CK1α
T1 construct: endogenous in cells; host or cells: hPBMCs (Milecell Biotechnologies)
Experimental: (§1) After 24 hours of compounds treatment, cells were harvested and lysed in RIPA protein lysate containing protease inhibitors on ice for 30 min, followed by centrifugation. The supernatant was aspirated as the extracted total cell protein. The protein concentration of the supernatant was determined using the conventional BCA (Bicinchoninic Acid) assay. • (2) To the collected supernatant, 5X SDS sample loading buffer was added, followed by denaturation at 95°C for 5 minutes. The denatured samples were then separated by SDS-PAGE electrophoresis on a polyacrylamide gel, transferred onto a nitrocellulose membrane (0.45 µm NC membrane), blocked with blocking buffer at room temperature for 1 hour, and subjected to antibody incubation and development procedures according to the antibody manufacturer's instructions (Cell Signaling Technology Company). […]
(§2) Target protein remaining (%) refers to the percentage of target protein remaining in cells after treatment with protein degrader compounds.
(§3) Calculation method for target protein remaining (%): Use ImageJ software to measure grayscale values of Western blot bands from drug (protein degrader)-treated samples. The grayscale value of drug-treated bands is divided by that of internal control protein bands, and the resulting quotient is normalized to obtain the relative percentage of remaining target protein after protein degrader treatment. Target protein degradation rate(%) = 1−target protein remaining(%). [formula]

IKZF1 = target: T2, IKZF1 (Homo sapiens, UniProt Q13422+Q96SW2); experiment: Western-blot assay of substrate protein degradation in hPBMCs, IKZF1
T2 construct: endogenous in cells; host or cells: hPBMCs (Milecell Biotechnologies)
Experimental: as §1, §2, §3

WEE1 = target: T3, WEE1 (Homo sapiens, UniProt P30291+Q96SW2); experiment: Western-blot assay of substrate protein degradation in hPBMCs, WEE1
T3 construct: endogenous in cells; host or cells: hPBMCs (Milecell Biotechnologies)
Experimental: as §1, §2, §3

IKZF3 = target: T4, IKZF3 (Homo sapiens, UniProt Q96SW2+Q9UKT9); experiment: Western-blot assay of substrate protein degradation in hPBMCs, IKZF3
T4 construct: endogenous in cells; host or cells: hPBMCs (Milecell Biotechnologies)
Experimental: as §1, §2, §3

IKZF2 = target: T5, IKZF2 (Homo sapiens, UniProt Q96SW2+Q9UKS7); experiment: Western-blot assay of substrate protein degradation in hPBMCs, IKZF2
T5 construct: endogenous in cells; host or cells: hPBMCs (Milecell Biotechnologies)
Experimental: as §1, §2, §3

GSPT1 = target: T6, GSPT1 (Homo sapiens, UniProt P15170+Q96SW2); experiment: Western-blot assay of substrate protein degradation in hPBMCs, GSPT1
T6 construct: endogenous in cells; host or cells: hPBMCs (Milecell Biotechnologies)
Experimental: as §1, §2, §3

[1] = 50 nM and 500 nM tested (concentration behind the class not stated)
[2] = compounds tested at 50 nM and 500 nM (concentration of the table not stated)

T2 sequence (Q13422 whole entry): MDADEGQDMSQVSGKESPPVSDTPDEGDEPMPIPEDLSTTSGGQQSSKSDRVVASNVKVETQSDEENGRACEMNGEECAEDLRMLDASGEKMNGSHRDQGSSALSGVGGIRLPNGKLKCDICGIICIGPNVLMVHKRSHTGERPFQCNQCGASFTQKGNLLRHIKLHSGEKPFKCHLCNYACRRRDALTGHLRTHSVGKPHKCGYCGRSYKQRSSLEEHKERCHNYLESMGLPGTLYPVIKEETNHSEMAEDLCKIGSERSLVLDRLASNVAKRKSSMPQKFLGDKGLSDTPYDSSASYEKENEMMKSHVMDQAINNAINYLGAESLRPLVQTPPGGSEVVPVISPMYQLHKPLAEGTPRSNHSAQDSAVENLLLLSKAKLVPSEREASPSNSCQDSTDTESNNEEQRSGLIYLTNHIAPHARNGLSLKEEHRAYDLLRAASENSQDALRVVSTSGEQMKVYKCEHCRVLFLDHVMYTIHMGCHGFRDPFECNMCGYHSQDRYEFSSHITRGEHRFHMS
T2 sequence (Q96SW2 whole entry): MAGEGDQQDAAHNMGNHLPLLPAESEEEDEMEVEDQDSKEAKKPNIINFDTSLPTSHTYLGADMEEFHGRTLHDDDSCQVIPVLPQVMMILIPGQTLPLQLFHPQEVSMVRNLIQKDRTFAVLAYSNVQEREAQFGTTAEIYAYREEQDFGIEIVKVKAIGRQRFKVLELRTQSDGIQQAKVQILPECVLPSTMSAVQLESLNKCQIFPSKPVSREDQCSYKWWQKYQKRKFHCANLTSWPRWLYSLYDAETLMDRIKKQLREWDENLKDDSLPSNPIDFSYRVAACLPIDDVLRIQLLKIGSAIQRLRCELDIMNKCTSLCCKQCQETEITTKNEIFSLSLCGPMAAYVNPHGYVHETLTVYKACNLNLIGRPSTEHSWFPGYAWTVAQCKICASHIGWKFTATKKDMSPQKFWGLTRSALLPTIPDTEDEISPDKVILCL
T2 sequence (Q16531 whole entry partner): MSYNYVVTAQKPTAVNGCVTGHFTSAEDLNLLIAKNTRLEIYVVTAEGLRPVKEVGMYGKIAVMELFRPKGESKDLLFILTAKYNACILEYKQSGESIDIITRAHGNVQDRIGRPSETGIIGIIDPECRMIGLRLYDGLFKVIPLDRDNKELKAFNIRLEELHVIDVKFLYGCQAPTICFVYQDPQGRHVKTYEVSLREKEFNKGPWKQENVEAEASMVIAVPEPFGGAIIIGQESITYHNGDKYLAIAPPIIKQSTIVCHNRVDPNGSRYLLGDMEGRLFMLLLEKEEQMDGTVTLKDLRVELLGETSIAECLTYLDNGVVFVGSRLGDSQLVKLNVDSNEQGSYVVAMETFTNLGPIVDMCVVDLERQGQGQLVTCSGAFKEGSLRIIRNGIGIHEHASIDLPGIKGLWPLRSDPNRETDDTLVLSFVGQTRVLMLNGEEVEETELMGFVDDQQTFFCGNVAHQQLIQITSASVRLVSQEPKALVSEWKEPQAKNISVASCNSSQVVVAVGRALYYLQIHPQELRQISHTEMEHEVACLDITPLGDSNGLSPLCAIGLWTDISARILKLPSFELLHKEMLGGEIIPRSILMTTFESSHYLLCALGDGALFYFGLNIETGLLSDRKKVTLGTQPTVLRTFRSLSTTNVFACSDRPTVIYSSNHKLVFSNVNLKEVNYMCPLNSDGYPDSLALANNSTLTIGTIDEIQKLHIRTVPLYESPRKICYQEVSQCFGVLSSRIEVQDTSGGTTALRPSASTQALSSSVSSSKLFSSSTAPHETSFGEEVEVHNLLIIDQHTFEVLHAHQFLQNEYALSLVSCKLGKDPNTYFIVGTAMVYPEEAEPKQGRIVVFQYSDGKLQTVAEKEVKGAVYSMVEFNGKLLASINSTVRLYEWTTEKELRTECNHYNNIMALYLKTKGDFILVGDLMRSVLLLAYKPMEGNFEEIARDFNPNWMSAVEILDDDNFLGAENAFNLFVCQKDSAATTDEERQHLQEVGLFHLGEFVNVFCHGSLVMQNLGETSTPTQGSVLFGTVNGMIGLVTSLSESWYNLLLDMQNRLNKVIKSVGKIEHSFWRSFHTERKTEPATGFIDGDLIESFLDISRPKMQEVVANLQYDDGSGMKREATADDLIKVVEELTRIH
T6 sequence (P15170 whole entry): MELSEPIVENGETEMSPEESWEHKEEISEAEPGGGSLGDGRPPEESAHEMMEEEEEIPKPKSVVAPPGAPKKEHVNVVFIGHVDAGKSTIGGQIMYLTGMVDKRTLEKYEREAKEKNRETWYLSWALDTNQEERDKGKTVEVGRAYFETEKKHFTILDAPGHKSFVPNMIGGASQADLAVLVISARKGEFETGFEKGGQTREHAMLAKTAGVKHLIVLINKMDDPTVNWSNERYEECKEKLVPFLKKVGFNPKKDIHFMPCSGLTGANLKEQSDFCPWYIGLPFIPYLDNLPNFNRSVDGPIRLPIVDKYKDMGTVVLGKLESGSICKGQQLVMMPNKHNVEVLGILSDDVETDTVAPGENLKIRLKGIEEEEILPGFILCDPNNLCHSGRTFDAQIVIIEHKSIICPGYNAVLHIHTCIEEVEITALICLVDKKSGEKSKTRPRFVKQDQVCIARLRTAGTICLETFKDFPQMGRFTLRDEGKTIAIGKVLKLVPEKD
T6 sequence (Q96SW2 whole entry): as the sequence (Q96SW2 whole entry) above
T6 sequence (Q16531 whole entry partner): as the sequence (Q16531 whole entry partner) above
T3 sequence (P30291 whole entry): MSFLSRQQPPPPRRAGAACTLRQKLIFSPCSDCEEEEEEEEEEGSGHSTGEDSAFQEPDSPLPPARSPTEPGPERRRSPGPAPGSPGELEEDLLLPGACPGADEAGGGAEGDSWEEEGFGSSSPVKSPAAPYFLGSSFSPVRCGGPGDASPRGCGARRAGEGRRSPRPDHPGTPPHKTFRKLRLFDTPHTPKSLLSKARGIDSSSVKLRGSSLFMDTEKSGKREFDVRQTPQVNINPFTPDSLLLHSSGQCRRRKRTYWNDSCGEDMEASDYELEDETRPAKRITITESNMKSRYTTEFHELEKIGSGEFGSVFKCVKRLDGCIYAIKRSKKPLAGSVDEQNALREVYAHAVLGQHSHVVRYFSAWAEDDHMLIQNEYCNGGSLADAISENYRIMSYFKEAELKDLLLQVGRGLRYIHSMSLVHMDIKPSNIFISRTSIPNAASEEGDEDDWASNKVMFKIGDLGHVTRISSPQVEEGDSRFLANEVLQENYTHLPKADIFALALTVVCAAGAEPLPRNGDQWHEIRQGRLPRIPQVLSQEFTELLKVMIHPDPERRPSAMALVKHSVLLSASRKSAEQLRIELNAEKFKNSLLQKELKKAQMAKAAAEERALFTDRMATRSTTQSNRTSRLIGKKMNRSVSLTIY
T3 sequence (Q96SW2 whole entry): as the sequence (Q96SW2 whole entry) above
T3 sequence (Q16531 whole entry partner): as the sequence (Q16531 whole entry partner) above
T4 sequence (Q9UKT9 whole entry): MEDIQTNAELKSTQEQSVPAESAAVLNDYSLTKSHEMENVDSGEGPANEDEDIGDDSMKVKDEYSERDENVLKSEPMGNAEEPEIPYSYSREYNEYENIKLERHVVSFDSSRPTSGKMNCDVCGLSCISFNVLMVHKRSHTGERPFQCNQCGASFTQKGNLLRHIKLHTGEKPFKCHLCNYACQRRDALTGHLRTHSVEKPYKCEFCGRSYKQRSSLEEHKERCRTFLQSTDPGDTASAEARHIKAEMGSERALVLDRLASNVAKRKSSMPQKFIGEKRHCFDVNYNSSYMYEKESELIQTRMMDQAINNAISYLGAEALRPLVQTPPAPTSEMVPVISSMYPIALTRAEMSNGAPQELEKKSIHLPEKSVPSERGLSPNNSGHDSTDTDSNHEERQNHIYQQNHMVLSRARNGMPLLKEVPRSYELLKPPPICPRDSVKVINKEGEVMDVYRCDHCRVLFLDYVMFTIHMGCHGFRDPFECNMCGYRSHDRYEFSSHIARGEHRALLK
T4 sequence (Q96SW2 whole entry): as the sequence (Q96SW2 whole entry) above
T4 sequence (Q16531 whole entry partner): as the sequence (Q16531 whole entry partner) above
T5 sequence (Q9UKS7 whole entry): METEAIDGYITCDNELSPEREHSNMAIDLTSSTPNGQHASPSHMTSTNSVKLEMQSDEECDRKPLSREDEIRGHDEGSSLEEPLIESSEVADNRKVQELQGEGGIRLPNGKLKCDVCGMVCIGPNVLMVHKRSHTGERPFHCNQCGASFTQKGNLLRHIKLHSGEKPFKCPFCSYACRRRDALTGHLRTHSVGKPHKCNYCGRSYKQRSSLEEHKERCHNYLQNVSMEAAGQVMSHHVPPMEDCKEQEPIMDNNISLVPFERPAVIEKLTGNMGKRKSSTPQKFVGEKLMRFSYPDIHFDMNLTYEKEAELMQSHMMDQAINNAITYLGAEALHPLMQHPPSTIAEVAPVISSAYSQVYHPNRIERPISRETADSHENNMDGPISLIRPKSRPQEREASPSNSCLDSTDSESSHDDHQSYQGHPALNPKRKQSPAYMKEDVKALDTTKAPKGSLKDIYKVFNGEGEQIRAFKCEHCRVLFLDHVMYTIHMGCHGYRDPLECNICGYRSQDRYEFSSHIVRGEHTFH
T5 sequence (Q96SW2 whole entry): as the sequence (Q96SW2 whole entry) above
T5 sequence (Q16531 whole entry partner): as the sequence (Q16531 whole entry partner) above

SMILES: O=C1CCC(N2C(=O)c3ccc(CN4CCC(c5cccs5)CC4)cc3C2=O)C(=O)N1 (stereo not drawn) [GT-06224, 2-(2,6-dioxopiperidin-3-yl)-5-((4-(thiophen-2-yl)piperidin-1-yl)methyl)isoindoline-1,3-dione]
- CK1a substrate protein remaining % (CK1α; [1]): A (0% ≤ substrate protein remaining % ≤ 80%)
- IKZF 1 substrate protein remaining % (IKZF1; [1]): A (0% ≤ substrate protein remaining % ≤ 80%)
- Weel substrate protein remaining % (WEE1; [1]): A (0% ≤ substrate protein remaining % ≤ 80%)
- IKZF3 substrate protein remaining % (IKZF3; [1]): A (0% ≤ substrate protein remaining % ≤ 80%)
- IKZF2 substrate protein remaining % (IKZF2; [1]): B (80%< substrate protein remaining %≤ 100%)
- GSPT1 substrate protein remaining % (GSPT1; [1]): A (0% ≤ substrate protein remaining % ≤ 80%)

SMILES: O=C1CCC(N2C(=O)c3ccc(CN4CCC(N5CCCc6cc(F)ccc65)CC4)cc3C2=O)C(=O)N1 (stereo not drawn) [GT-06234, 2-(2,6-dioxopiperidin-3-yl)-5-((4-(6-fluoro-3,4-dihydroquinolin-1(2H)-yl)piperidin-1-yl)methyl)isoindoline-1,3-dione]
- CK1a substrate protein remaining % (CK1α; [2]): B (80%< substrate protein remaining %≤ 100%)
- IKZF 1 substrate protein remaining % (IKZF1; [2]): B (80%< substrate protein remaining %≤ 100%)
- Weel substrate protein remaining % (WEE1; [2]): B (80%< substrate protein remaining %≤ 100%)
- IKZF3 substrate protein remaining % (IKZF3; [2]): B (80%< substrate protein remaining %≤ 100%)
- IKZF2 substrate protein remaining % (IKZF2; [2]): B (80%< substrate protein remaining %≤ 100%)
- GSPT1 substrate protein remaining % (GSPT1; [2]): A (0% ≤ substrate protein remaining % ≤ 80%)

SMILES: O=C1CCC(N2C(=O)c3ccc(CN4CCC(N5CCOc6cc(F)ccc65)CC4)cc3C2=O)C(=O)N1 (stereo not drawn) [GT-06235, 2-(2,6-dioxopiperidin-3-yl)-5-((4-(7-fluoro-2,3-dihydro-4H-benzo[b][1,4]oxazin-4-yl)piperidin-1-yl)methyl)isoindoline-1,3-dione]
- CK1a substrate protein remaining % (CK1α; [2]): B (80%< substrate protein remaining %≤ 100%)
- IKZF 1 substrate protein remaining % (IKZF1; [2]): B (80%< substrate protein remaining %≤ 100%)
- Weel substrate protein remaining % (WEE1; [2]): B (80%< substrate protein remaining %≤ 100%)
- IKZF3 substrate protein remaining % (IKZF3; [2]): B (80%< substrate protein remaining %≤ 100%)
- IKZF2 substrate protein remaining % (IKZF2; [2]): B (80%< substrate protein remaining %≤ 100%)
- GSPT1 substrate protein remaining % (GSPT1; [2]): A (0% ≤ substrate protein remaining % ≤ 80%)

SMILES: O=C1CCC(N2C(=O)c3ccc(CN4CCC(N5C(=O)COc6cc(F)ccc65)CC4)cc3C2=O)C(=O)N1 (stereo not drawn) [GT-06236, 2-(2,6-dioxopiperidin-3-yl)-5-((4-(7-fluoro-3-oxo-2,3-dihydro-4H-benzo[b][1,4]oxazin-4-yl)piperidin-1-yl)methyl)isoindoline-1,3-dione]
- CK1a substrate protein remaining % (CK1α; [2]): B (80%< substrate protein remaining %≤ 100%)
- IKZF 1 substrate protein remaining % (IKZF1; [2]): B (80%< substrate protein remaining %≤ 100%)
- Weel substrate protein remaining % (WEE1; [2]): B (80%< substrate protein remaining %≤ 100%)
- IKZF3 substrate protein remaining % (IKZF3; [2]): B (80%< substrate protein remaining %≤ 100%)
- IKZF2 substrate protein remaining % (IKZF2; [2]): A (0% ≤ substrate protein remaining % ≤ 80%)
- GSPT1 substrate protein remaining % (GSPT1; [2]): A (0% ≤ substrate protein remaining % ≤ 80%)

SMILES: O=C1CCC(N2C(=O)c3ccc(CN4CCC(C5CCOc6cc(F)ccc65)CC4)cc3C2=O)C(=O)N1 (stereo not drawn) [GT-06237, 2-(2,6-dioxopiperidin-3-yl)-5-((4-(7-fluorochroman-4-yl)piperidin-1-yl)methyl)isoindoline-1,3-dione]
- CK1a substrate protein remaining % (CK1α; [2]): B (80%< substrate protein remaining %≤ 100%)
- IKZF 1 substrate protein remaining % (IKZF1; [2]): B (80%< substrate protein remaining %≤ 100%)
- Weel substrate protein remaining % (WEE1; [2]): B (80%< substrate protein remaining %≤ 100%)
- IKZF3 substrate protein remaining % (IKZF3; [2]): B (80%< substrate protein remaining %≤ 100%)
- IKZF2 substrate protein remaining % (IKZF2; [2]): B (80%< substrate protein remaining %≤ 100%)
- GSPT1 substrate protein remaining % (GSPT1; [2]): A (0% ≤ substrate protein remaining % ≤ 80%)

SMILES: Cc1cscc1N1CCN(Cc2ccc3c(c2)C(=O)N(C2CCC(=O)NC2=O)C3=O)CC1 (stereo not drawn) [GT-06260, 2-(2,6-dioxopiperidin-3-yl)-5-((4-(4-methylthiophen-3-yl)piperazin-1-yl)methyl)isoindoline-1,3-dione]
- CK1a substrate protein remaining % (CK1α; [1]): B (80%< substrate protein remaining %≤ 100%)
- IKZF 1 substrate protein remaining % (IKZF1; [1]): B (80%< substrate protein remaining %≤ 100%)
- Weel substrate protein remaining % (WEE1; [1]): B (80%< substrate protein remaining %≤ 100%)
- IKZF3 substrate protein remaining % (IKZF3; [1]): B (80%< substrate protein remaining %≤ 100%)
- IKZF2 substrate protein remaining % (IKZF2; [1]): B (80%< substrate protein remaining %≤ 100%)
- GSPT1 substrate protein remaining % (GSPT1; [1]): A (0% ≤ substrate protein remaining % ≤ 80%)

SMILES: O=C1CCC(N2C(=O)c3ccc(CN4CC=C(c5ccsc5)CC4)cc3C2=O)C(=O)N1 (stereo not drawn) [GT-06261, 2-(2,6-dioxopiperidin-3-yl)-5-((4-(thiophen-3-yl)-3,6-dihydropyridin-1(2H)-yl)methyl)isoindoline-1,3-dione]
- CK1a substrate protein remaining % (CK1α; [1]): A (0% ≤ substrate protein remaining % ≤ 80%)
- IKZF 1 substrate protein remaining % (IKZF1; [1]): A (0% ≤ substrate protein remaining % ≤ 80%)
- Weel substrate protein remaining % (WEE1; [1]): A (0% ≤ substrate protein remaining % ≤ 80%)
- IKZF3 substrate protein remaining % (IKZF3; [1]): A (0% ≤ substrate protein remaining % ≤ 80%)
- IKZF2 substrate protein remaining % (IKZF2; [1]): A (0% ≤ substrate protein remaining % ≤ 80%)
- GSPT1 substrate protein remaining % (GSPT1; [1]): A (0% ≤ substrate protein remaining % ≤ 80%)

SMILES: Cc1ccc(C2CCN(Cc3ccc4c(c3)C(=O)N(C3CCC(=O)NC3=O)C4=O)CC2)s1 (stereo not drawn) [GT-06262, 2-(2,6-dioxopiperidin-3-yl)-5-((4-(5-methylthiophen-2-yl)piperidin-1-yl)methyl)isoindoline-1,3-dione]
- CK1a substrate protein remaining % (CK1α; [1]): A (0% ≤ substrate protein remaining % ≤ 80%)
- IKZF 1 substrate protein remaining % (IKZF1; [1]): B (80%< substrate protein remaining %≤ 100%)
- Weel substrate protein remaining % (WEE1; [1]): B (80%< substrate protein remaining %≤ 100%)
- IKZF3 substrate protein remaining % (IKZF3; [1]): B (80%< substrate protein remaining %≤ 100%)
- IKZF2 substrate protein remaining % (IKZF2; [1]): A (0% ≤ substrate protein remaining % ≤ 80%)
- GSPT1 substrate protein remaining % (GSPT1; [1]): A (0% ≤ substrate protein remaining % ≤ 80%)

SMILES: O=C1CCC(N2C(=O)c3ccc(CN4CCC(c5cccc6c(F)cccc56)CC4)cc3C2=O)C(=O)N1 (stereo not drawn) [GT-06263, 2-(2,6-dioxopiperidin-3-yl)-5-((4-(5-fluoronaphthalen-1-yl)piperidin-1-yl)methyl)isoindoline-1,3-dione]
- CK1a substrate protein remaining % (CK1α; [2]): A (0% ≤ substrate protein remaining % ≤ 80%)
- IKZF 1 substrate protein remaining % (IKZF1; [2]): B (80%< substrate protein remaining %≤ 100%)
- Weel substrate protein remaining % (WEE1; [2]): B (80%< substrate protein remaining %≤ 100%)
- IKZF3 substrate protein remaining % (IKZF3; [2]): A (0% ≤ substrate protein remaining % ≤ 80%)
- IKZF2 substrate protein remaining % (IKZF2; [2]): B (80%< substrate protein remaining %≤ 100%)
- GSPT1 substrate protein remaining % (GSPT1; [2]): A (0% ≤ substrate protein remaining % ≤ 80%)

SMILES: O=C1CCC(N2C(=O)c3ccc(CN4CC=C(c5cccc6c(F)cccc56)CC4)cc3C2=O)C(=O)N1 (stereo not drawn) [GT-06264, 2-(2,6-dioxopiperidin-3-yl)-5-((4-(5-fluoronaphthalen-1-yl)-3,6-dihydropyridin-1(2H)-yl)methyl)isoindoline-1,3-dione]
- CK1a substrate protein remaining % (CK1α; [2]): A (0% ≤ substrate protein remaining % ≤ 80%)
- IKZF 1 substrate protein remaining % (IKZF1; [2]): A (0% ≤ substrate protein remaining % ≤ 80%)
- Weel substrate protein remaining % (WEE1; [2]): A (0% ≤ substrate protein remaining % ≤ 80%)
- IKZF3 substrate protein remaining % (IKZF3; [2]): A (0% ≤ substrate protein remaining % ≤ 80%)
- IKZF2 substrate protein remaining % (IKZF2; [2]): A (0% ≤ substrate protein remaining % ≤ 80%)
- GSPT1 substrate protein remaining % (GSPT1; [2]): A (0% ≤ substrate protein remaining % ≤ 80%)

SMILES: O=C1CCC(N2C(=O)c3ccc(CN4CCC(c5ccnc6cc(F)ccc56)CC4)cc3C2=O)C(=O)N1 (stereo not drawn) [GT-06265, 2-(2,6-dioxopiperidin-3-yl)-5-((4-(7-fluoroquinolin-4-yl)piperidin-1-yl)methyl)isoindoline-1,3-dione]
- CK1a substrate protein remaining % (CK1α; [2]): B (80%< substrate protein remaining %≤ 100%)
- IKZF 1 substrate protein remaining % (IKZF1; [2]): B (80%< substrate protein remaining %≤ 100%)
- Weel substrate protein remaining % (WEE1; [2]): B (80%< substrate protein remaining %≤ 100%)
- IKZF3 substrate protein remaining % (IKZF3; [2]): B (80%< substrate protein remaining %≤ 100%)
- IKZF2 substrate protein remaining % (IKZF2; [2]): A (0% ≤ substrate protein remaining % ≤ 80%)
- GSPT1 substrate protein remaining % (GSPT1; [2]): B (80%< substrate protein remaining %≤ 100%)

SMILES: O=C1CCC(N2C(=O)c3ccc(CN4CCC(c5cccc6cnccc56)CC4)cc3C2=O)C(=O)N1 (stereo not drawn) [GT-06266, 2-(2,6-dioxopiperidin-3-yl)-5-((4-(isoquinolin-5-yl)piperidin-1-yl)methyl)isoindoline-1,3-dione]
- CK1a substrate protein remaining % (CK1α; [2]): B (80%< substrate protein remaining %≤ 100%)
- IKZF 1 substrate protein remaining % (IKZF1; [2]): B (80%< substrate protein remaining %≤ 100%)
- Weel substrate protein remaining % (WEE1; [2]): B (80%< substrate protein remaining %≤ 100%)
- IKZF3 substrate protein remaining % (IKZF3; [2]): B (80%< substrate protein remaining %≤ 100%)
- IKZF2 substrate protein remaining % (IKZF2; [2]): A (0% ≤ substrate protein remaining % ≤ 80%)
- GSPT1 substrate protein remaining % (GSPT1; [2]): B (80%< substrate protein remaining %≤ 100%)
